Test results: ChEMBL document CHEMBL1201862, “PubChem BioAssay data set” (2004)
Active and inactive are the calls of the source.

Legend:
[1] = molecular target: Acyl-homoserine lactone acylase PvdQ (Pseudomonas aeruginosa (strain LESB58), UniProt Q9I194); assay: P. aeruginosa PvdQ acylase inhibitors, dose response, biochemical, fluorescence, plate reader and imaging, cherry-picks (AID 493231)
[2] = molecular target: Neurotensin receptor type 1 (Homo sapiens, UniProt P30989); type: functional;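 also: Image-based confirmatory dose-response assay measuring agonist activity at NTR1; NTR1-expressing U2OS osteosarcoma cells imaged for beta-arrestin GFP spot formation; agonist potency where compounds increase beta-arrestin recruitment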
Bcl-2-like protein 10 = molecular target: T1, Bcl-2-like protein 10 (Homo sapiens, UniProt Q9HD36); assay: displacers of TR3 peptide from Bcl-B, primary screen, selectivity assay for Bfl-1 inhibitor project, biochemical, fluorescence polarization, FITC-TR3 peptide (AID 748);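 also: fluorescence polarization from a fluorescein-labelled TR3 peptide binding purified Bcl-B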
T1 sequence (Q9HD36 whole entry): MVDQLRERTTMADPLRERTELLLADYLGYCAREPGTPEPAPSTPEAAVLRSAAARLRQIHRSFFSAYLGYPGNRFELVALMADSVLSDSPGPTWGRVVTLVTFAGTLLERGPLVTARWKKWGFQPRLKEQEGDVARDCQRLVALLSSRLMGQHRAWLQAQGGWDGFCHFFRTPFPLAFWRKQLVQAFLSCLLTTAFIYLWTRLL

[3] = molecular target: Cyclin-dependent kinase 5/CDK5 activator 1 (Homo sapiens, UniProt Q00535); assay: CDK5/p35 kinase inhibitors, dose response, biochemical, cherry-picked samples, set 2 (AID 504545)
Leucine aminopeptidase = molecular target: T2, Leucine aminopeptidase (Plasmodium falciparum 3D7, UniProt Q8IL11); assay: P. falciparum M17LAP inhibitors, primary screen, biochemical, fluorogenic H-Leu-NHMec substrate, 1536-well (AID 1619); type: functional
T2 sequence (Q8IL11 whole entry): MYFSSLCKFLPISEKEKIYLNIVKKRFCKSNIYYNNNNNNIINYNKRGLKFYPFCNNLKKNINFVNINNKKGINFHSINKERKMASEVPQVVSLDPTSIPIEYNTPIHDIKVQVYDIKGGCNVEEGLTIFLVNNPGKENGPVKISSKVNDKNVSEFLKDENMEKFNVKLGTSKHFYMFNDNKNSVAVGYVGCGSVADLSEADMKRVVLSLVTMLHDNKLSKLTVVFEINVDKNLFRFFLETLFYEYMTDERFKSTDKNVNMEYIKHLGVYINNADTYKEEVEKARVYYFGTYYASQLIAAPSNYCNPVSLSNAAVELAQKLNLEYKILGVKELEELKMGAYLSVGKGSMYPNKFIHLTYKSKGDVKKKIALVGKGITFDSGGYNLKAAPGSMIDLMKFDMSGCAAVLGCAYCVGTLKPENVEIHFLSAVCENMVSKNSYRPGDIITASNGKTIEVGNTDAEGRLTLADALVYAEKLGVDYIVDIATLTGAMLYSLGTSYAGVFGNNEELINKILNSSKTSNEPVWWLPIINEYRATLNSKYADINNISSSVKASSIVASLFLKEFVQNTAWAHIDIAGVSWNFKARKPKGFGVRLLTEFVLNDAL

Aspartyl aminopeptidase = molecular target: T3, Aspartyl aminopeptidase (Plasmodium falciparum 3D7, UniProt Q8I2J3)
T3 sequence (Q8I2J3 whole entry): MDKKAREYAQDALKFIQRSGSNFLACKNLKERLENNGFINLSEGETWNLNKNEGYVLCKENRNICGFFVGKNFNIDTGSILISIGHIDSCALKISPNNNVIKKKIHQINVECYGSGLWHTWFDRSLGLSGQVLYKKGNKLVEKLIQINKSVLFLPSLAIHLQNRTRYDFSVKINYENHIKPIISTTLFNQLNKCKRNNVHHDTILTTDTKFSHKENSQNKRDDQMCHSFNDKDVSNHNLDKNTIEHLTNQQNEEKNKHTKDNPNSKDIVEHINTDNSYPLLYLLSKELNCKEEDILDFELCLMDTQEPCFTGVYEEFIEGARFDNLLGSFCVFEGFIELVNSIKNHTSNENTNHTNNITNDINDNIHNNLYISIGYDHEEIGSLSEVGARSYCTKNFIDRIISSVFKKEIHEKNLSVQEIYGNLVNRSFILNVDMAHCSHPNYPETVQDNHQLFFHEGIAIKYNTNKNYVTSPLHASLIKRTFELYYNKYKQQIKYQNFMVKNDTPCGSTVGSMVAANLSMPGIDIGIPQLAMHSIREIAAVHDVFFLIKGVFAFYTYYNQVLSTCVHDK

Procathepsin L = Procathepsin L (Homo sapiens, UniProt P07711)
[4] = molecular target: Female germline-specific tumor suppressor gld-1 (Caenorhabditis elegans, UniProt Q17339); assay: inhibitors of GLD-1 binding to TGE RNA, dose response, biochemical, fluorescence polarization, C. elegans (AID 2802);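 also: fluorescence polarization of labeled TGE RNA bound by purified gld-1 protein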
[5] = molecular target: T4, Polyadenylate-binding protein 1 (Homo sapiens, UniProt P11940); assay: PABP1 MLLE–PAM2 binding inhibitor potency, dose response, biochemical, fluorescence polarization, FITC-PAM2 peptide (AID 602259); type: functional; conditions: read-out: IC50_Mean
Protein Rev = Protein Rev (Human immunodeficiency virus type 1 group M subtype B (isolate HXB2)(HIV-1), UniProt P04618); assay: inhibitors of Rev binding to RRE RNA, dose response, biochemical, fluorescence polarization, HIV-1 (AID 434976); design: species or system Human immunodeficiency virus 1
[6] = molecular target: T4, Polyadenylate-binding protein 1; assay: PABP1 MLLE–PAM2 interaction inhibitors, dose response, miRNA deadenylation inhibitor project, biochemical, fluorescence polarization, Cy5-PAM2 peptide, secondary (AID 602260); type: functional; conditions: read-out: IC50_Mean
[7] = molecular target: T5, DNA repair and recombination protein RAD54-like (Homo sapiens, UniProt Q92698); assay: inhibitors of human RAD54 branch migration, confirmation, biochemical, fluorescence, cherry-picked samples, dose series (AID 651657); type: functional
T5 sequence (Q92698 whole entry): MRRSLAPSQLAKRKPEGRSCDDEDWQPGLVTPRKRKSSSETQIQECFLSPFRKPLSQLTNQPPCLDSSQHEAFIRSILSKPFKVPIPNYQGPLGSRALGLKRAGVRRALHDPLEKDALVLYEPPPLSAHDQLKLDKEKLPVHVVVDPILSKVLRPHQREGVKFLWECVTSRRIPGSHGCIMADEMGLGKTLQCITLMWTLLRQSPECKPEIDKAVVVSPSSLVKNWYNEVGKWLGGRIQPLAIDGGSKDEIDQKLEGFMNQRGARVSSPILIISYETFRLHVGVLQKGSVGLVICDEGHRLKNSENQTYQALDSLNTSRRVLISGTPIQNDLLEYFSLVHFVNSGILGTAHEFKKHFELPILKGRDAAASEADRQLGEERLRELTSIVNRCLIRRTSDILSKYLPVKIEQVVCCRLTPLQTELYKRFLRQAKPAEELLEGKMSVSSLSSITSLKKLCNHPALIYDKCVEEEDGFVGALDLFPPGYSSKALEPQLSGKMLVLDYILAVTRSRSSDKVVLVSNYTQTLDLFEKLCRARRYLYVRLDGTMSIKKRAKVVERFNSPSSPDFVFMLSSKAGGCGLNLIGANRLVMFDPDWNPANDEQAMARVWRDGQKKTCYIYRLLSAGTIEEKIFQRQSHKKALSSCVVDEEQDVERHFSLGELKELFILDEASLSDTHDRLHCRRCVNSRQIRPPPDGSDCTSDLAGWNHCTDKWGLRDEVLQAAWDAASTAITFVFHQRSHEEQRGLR

[8] = A cytotoxicity screen of small molecule inhibitors of the PhoP region in Salmonella typhi identified in the primary screen. [Related pubchem assays: 1850, 1864, 1985 ]; type: functional
Cytochrome P450 2C9 = Cytochrome P450 2C9 (Homo sapiens, UniProt P11712); conditions: Potency
[9] = molecular target: Eukaryotic translation initiation factor 4H (Homo sapiens, UniProt Q15056); assay: human eIF4H binding inhibitors, primary screen, translation initiation inhibitor project, biochemical, uHTS, fluorescence polarization (AID 2012)
[10] = molecular target: DNA dC->dU-editing enzyme APOBEC-3A (Homo sapiens, UniProt P31941); assay: Dose Response confirmation of small molecule APOBEC3A DNA Deaminase Inhibitors via a fluorescence-based single-stranded DNA deaminase assay. [Related pubchem assays (depositor defined):AID493011, AID493024]; type: functional
[11] = molecular target: T4, Polyadenylate-binding protein 1; assay: PABP poly(A) RNA binding inhibitors, primary screen, biochemical, fluorescence polarization, uHTS (AID 2014)
[12] = molecular target: DNA dC->dU-editing enzyme APOBEC-3G (Homo sapiens, UniProt Q9HC16); type: functional;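 also: Dose-response counterscreen measuring inhibition of APOBEC3G DNA deaminase activity, run while confirming APOBEC3A inhibitors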
Protein Tat = Protein Tat (Human immunodeficiency virus type 1 group M subtype B (isolate HXB2)(HIV-1), UniProt P04608); type: functional;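 also: tat binding to TAR RNA read out by fluorescence polarization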
[13] = THP-1 cell cytotoxicity, dose response, cytotoxicity control for Vif-APOBEC3G degradation inhibitor project, THP-1 cells (AID 1117359); type: functional; conditions: Human immunodeficiency virus 1, THP-1

T4 sequence (P11940 whole entry): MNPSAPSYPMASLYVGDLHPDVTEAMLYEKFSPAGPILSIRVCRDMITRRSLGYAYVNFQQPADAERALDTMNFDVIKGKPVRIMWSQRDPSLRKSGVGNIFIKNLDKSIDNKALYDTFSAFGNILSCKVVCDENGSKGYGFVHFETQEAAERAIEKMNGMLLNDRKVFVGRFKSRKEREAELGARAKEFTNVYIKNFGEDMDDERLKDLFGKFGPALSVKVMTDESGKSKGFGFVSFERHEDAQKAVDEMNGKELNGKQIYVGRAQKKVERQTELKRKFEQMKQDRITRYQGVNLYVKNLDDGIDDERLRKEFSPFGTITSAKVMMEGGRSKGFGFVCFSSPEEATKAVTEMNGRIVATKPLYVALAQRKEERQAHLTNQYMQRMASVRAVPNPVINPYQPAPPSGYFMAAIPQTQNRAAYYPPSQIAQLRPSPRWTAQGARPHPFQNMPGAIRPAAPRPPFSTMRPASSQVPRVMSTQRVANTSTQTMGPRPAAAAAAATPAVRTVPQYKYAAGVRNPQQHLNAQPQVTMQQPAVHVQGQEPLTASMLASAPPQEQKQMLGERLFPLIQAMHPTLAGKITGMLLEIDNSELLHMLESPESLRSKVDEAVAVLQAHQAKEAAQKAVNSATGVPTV
Procathepsin L, sequence (P07711 whole entry): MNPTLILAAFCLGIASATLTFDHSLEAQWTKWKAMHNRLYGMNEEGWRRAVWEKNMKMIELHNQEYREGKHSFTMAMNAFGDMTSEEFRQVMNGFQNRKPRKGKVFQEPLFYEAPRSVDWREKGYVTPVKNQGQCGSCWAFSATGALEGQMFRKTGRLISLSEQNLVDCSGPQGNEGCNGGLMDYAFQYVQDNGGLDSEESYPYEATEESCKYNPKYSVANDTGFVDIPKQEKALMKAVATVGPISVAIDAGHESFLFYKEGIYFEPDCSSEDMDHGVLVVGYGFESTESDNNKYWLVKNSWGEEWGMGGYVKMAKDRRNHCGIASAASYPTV
Female germline-specific tumor suppressor gld-1, sequence (Q17339 whole entry): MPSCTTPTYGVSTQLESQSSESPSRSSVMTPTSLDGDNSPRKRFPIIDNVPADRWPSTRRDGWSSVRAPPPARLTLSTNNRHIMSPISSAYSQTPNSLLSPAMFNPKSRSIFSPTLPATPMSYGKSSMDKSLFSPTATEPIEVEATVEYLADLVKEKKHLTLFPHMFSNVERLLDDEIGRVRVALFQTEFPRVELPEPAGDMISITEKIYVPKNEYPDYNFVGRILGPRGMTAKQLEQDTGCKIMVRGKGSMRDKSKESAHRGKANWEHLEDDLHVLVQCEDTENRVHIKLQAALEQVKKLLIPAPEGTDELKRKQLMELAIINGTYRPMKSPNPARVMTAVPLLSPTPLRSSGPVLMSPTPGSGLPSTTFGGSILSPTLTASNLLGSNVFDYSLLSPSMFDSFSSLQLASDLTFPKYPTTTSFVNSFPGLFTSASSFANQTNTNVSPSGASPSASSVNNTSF
Acyl-homoserine lactone acylase PvdQ, sequence (Q9I194 24-193 limits assumed): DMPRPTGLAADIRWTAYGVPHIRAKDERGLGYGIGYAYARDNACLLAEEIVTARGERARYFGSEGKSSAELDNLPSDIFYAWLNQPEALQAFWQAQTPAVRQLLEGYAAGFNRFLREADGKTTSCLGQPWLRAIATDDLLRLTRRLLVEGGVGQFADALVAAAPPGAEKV
Acyl-homoserine lactone acylase PvdQ, sequence (Q9I194 217-762 limits assumed): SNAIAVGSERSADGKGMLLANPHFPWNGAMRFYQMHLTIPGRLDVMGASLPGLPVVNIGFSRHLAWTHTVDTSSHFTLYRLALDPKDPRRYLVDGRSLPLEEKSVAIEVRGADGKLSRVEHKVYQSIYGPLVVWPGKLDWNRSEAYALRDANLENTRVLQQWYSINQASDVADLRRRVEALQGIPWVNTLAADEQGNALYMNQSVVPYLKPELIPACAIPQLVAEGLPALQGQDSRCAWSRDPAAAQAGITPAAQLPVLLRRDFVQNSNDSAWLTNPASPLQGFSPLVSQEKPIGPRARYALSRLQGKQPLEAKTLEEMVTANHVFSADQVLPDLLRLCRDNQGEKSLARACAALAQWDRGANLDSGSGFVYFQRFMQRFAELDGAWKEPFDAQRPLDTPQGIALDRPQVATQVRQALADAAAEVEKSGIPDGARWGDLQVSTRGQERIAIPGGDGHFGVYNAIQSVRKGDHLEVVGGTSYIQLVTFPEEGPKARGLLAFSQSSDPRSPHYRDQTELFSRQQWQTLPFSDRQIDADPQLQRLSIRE
Protein Rev, sequence (P04618 whole entry): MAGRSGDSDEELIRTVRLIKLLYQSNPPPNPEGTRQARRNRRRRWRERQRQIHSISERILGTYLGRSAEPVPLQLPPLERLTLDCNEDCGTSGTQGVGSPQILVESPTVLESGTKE
Cyclin-dependent kinase 5/CDK5 activator 1, sequence (Q00535 whole entry): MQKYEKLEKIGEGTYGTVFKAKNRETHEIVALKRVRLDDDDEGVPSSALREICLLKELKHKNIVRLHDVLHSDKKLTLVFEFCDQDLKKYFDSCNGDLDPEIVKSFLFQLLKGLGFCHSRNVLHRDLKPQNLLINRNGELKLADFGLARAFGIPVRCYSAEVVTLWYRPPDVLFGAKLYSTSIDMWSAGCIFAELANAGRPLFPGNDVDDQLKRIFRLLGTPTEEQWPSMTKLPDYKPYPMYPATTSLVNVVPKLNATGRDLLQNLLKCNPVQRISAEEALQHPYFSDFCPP
Cyclin-dependent kinase 5/CDK5 activator 1, sequence (Q15078 whole entry, further chain): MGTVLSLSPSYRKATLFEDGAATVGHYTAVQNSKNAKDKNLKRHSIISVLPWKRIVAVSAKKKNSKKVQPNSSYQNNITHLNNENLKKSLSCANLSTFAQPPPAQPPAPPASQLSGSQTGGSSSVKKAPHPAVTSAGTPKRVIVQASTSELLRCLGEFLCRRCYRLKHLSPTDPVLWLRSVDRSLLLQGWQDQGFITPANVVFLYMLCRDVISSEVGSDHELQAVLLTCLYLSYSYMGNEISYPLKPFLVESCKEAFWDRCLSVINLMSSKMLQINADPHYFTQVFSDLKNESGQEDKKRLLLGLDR
Cytochrome P450 2C9, sequence (P11712 whole entry): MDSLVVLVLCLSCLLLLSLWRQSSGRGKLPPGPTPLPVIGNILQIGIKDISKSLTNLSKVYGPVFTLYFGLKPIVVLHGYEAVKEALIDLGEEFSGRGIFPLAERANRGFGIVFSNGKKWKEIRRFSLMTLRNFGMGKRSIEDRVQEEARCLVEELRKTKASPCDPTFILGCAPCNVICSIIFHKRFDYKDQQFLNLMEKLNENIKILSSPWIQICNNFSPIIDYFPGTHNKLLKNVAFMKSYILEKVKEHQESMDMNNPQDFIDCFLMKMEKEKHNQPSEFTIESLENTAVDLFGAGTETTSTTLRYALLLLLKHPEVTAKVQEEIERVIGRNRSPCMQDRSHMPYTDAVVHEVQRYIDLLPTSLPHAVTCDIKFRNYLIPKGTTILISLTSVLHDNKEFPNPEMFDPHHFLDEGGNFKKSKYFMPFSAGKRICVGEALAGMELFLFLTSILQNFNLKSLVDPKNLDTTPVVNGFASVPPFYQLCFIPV
Protein Tat, sequence (P04608 whole entry): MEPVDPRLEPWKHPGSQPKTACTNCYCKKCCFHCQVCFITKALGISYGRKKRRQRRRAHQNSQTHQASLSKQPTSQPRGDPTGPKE
Neurotensin receptor type 1, sequence (P30989 whole entry): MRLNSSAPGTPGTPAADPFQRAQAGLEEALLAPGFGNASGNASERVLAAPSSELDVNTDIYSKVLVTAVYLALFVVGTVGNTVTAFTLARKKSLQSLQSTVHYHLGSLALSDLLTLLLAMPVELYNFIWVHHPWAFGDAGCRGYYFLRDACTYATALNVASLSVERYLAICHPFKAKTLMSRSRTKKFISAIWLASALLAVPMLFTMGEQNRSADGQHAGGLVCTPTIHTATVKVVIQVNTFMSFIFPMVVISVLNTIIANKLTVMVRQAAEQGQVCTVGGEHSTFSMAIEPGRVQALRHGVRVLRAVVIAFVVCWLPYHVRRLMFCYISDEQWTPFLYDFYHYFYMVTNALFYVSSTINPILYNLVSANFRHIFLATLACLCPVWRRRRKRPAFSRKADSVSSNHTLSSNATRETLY
DNA dC->dU-editing enzyme APOBEC-3G, sequence (Q9HC16 whole entry): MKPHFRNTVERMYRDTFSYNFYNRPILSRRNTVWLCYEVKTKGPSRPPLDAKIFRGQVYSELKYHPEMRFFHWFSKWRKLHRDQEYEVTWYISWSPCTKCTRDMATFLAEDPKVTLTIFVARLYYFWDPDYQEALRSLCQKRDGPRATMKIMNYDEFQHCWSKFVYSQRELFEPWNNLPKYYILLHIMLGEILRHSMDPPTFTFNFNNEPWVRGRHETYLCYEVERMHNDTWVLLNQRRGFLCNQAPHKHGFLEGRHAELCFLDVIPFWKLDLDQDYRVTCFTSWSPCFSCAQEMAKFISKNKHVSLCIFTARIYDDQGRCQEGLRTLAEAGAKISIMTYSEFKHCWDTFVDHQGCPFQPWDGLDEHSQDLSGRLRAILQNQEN
DNA dC->dU-editing enzyme APOBEC-3A, sequence (P31941 whole entry): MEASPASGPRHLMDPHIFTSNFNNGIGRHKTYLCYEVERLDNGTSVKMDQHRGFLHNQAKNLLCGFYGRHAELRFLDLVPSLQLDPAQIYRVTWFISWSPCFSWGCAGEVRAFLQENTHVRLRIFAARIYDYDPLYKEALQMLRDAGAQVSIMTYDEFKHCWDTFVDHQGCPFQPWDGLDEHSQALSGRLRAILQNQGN

For Cc1cc(C)nc(N(C#N)Cc2ccc(Cl)cc2)n1, the AC50 [1] was 21.9 µM (active).
For CCCCn1c(SCC(=O)N2CCC(C)CC2)nc2cc(S(N)(=O)=O)ccc21, the EC50 [2] was 20.7 µM (inactive).
For COc1ccc(-c2nc3n(n2)C(c2cccnc2)C(C(N)=O)=C(C)N3)cc1 (centres undefined), the IC50 (Bcl-2-like protein 10) was > 100 µM (inactive).
With COc1cc(C(=O)N2CCN(c3ccccn3)CC2)cc(OC)c1OC the AC50 [3] was 2.75 µM (active).
With O=C(CSc1nnc[nH]1)OCN1C(=O)c2ccccc2C1=O the IC50 (Leucine aminopeptidase) was 64.4 µM (active), the IC50 (Aspartyl aminopeptidase) was 0.35 µM (active) and the IC50 (Procathepsin L) was > 59.6 µM (not active).
For Cc1ccc[n+](-c2nc([O-])sc2C=NNc2ccc([N+](=O)[O-])cc2)c1, the IC50 [4] was 3.96 µM (active), the IC50 [5] was 33.3 µM (inactive) and the IC50 (Protein Rev) was 10.1 µM (not active). For the same compound, the IC50 [6] was > 66 µM (inactive).
With COc1cc2c(C#N)c(N3CCN(C)CC3)nc(N)c2c(N)n1 the IC50 (Bcl-2-like protein 10) was > 100 µM (inactive) and the AC50 [7] was 28.9 µM (active).
For COc1nnc(-c2ccc(N3CCOCC3)c(NC(=O)c3ccc(C)cc3)c2)c2ccccc12, the EC50 [8] was > 50 µM (active).
With Cc1cc(C)nc(N(C#N)Cc2ccccc2)n1 the AC50 [1] was 9.18 µM (active).
In the case of NCCC[C@@H](CC(=O)N[C@@H]1CCCC[C@H]1C(=O)N[C@H](CC(=O)N[C@@H](CCC(=O)O)CC(=O)O)Cc1ccccc1)NC(=O)C[C@H](CO)NC(=O)[C@@H]1CCCC[C@H]1N, the AC50 (Cytochrome P450 2C9) is reported as 39.8 µM (inconclusive).
With Cc1ccc(NC2=NCCCS2)cc1Cl the EC50 [8] was > 50 µM (active).
For CCN1C(NCCOC)=N[C@@H](c2cccc(F)c2)C(C(=O)OC)=C1C, the IC50 [9] was > 100 µM (inactive), the IC50 [10] was 3.86 µM (active) and the IC50 [11] was 12.8 µM (active). The IC50 [12] was 5.2 µM (active).
For CCOC(=O)NC(=O)COC(=O)c1ccc(Sc2nnc[nH]2)c([N+](=O)[O-])c1, the IC50 (Aspartyl aminopeptidase) was 0.609 µM (active) and the IC50 (Procathepsin L) was > 59.6 µM (not active).
With CN1CCN(c2ncc3nc(-c4cccc(C#N)c4)c(=O)n(C[C@H]4CCCO4)c3n2)CC1 the AC50 (Cytochrome P450 2C9) was 25.1 µM (inconclusive).
In the case of NC(=O)c1cc([N+](=O)[O-])c(Cl)cc1NCc1cccnc1, the AC50 [3] is reported as 14.3 µM (active).
For COc1ccc(/C=N/c2c(-c3ccco3)nc3ccccn23)cc1OC, the IC50 (Protein Tat) was 8.15 µM (inconclusive), the IC50 [4] was 3.71 µM (active) and the IC50 (Protein Rev) was 56.1 µM (not active). The CC50 [13] was > 40 µM (active).
